Data: the NIST ThermoML archive (doi:10.1021/je8003782)

Test: xn = mol fraction of the nth substance listed
Conditions: 101 kPa, Liquid

C1N2CN3CN1CN(C2)C3 [1,3,5,7-tetraazaadamantane] + CC(=O)O
Conditions	mass density [kg/m3]	viscosity [mPa·s]
293.15 K, x1 = 0.0201	1058.6	1.497
293.15 K, x1 = 0.0401	1066.7	1.865
293.15 K, x1 = 0.06	1075.67	2.363
293.15 K, x1 = 0.0801	1085.77	3.021
293.15 K, x1 = 0.1	1091.87	3.841
293.15 K, x1 = 0.1201	1100.76	4.951
293.15 K, x1 = 0.15	1111.19	7.154
298.15 K, x1 = 0.0201	1052.66	1.367
298.15 K, x1 = 0.0401	1061.41	1.682
298.15 K, x1 = 0.06	1070.38	2.106
298.15 K, x1 = 0.0801	1080.66	2.655
298.15 K, x1 = 0.1	1086.54	3.333
298.15 K, x1 = 0.1201	1095.79	4.254
298.15 K, x1 = 0.15	1106.18	5.988
303.15 K, x1 = 0.0201	1046.65	1.248
303.15 K, x1 = 0.0401	1055.87	1.523
303.15 K, x1 = 0.06	1065.17	1.893
303.15 K, x1 = 0.0801	1075.44	2.355
303.15 K, x1 = 0.1	1081.61	2.919
303.15 K, x1 = 0.1201	1090.8	3.657
303.15 K, x1 = 0.15	1101.14	5.085
308.15 K, x1 = 0.0201	1042.8	1.148
308.15 K, x1 = 0.0401	1050.6	1.383
308.15 K, x1 = 0.06	1059.92	1.703
308.15 K, x1 = 0.0801	1068.93	2.091
308.15 K, x1 = 0.1	1076.58	2.565
308.15 K, x1 = 0.1201	1086.04	3.179
308.15 K, x1 = 0.15	1096.34	4.368
313.15 K, x1 = 0.0201	1036.2	1.059
313.15 K, x1 = 0.0401	1045.66	1.268
313.15 K, x1 = 0.06	1055.02	1.549
313.15 K, x1 = 0.0801	1063.52	1.879
313.15 K, x1 = 0.1	1071.68	2.296
313.15 K, x1 = 0.1201	1081.27	2.806
313.15 K, x1 = 0.15	1091.63	3.821
318.15 K, x1 = 0.0201	1030.1	0.992
318.15 K, x1 = 0.0401	1039.61	1.179
318.15 K, x1 = 0.06	1049.52	1.435
318.15 K, x1 = 0.0801	1057.74	1.719
318.15 K, x1 = 0.1	1065.6	2.073
318.15 K, x1 = 0.1201	1076.49	2.512
318.15 K, x1 = 0.15	1086	3.352
323.15 K, x1 = 0.0201	1024.35	0.909
323.15 K, x1 = 0.0401	1034.21	1.072
323.15 K, x1 = 0.06	1044.05	1.296
323.15 K, x1 = 0.0801	1052.4	1.541
323.15 K, x1 = 0.1	1060.71	1.842
323.15 K, x1 = 0.1201	1069.06	2.203
323.15 K, x1 = 0.15	1080.9	2.893
328.15 K, x1 = 0.0201	1019.23	0.845
328.15 K, x1 = 0.0401	1028.98	0.988
328.15 K, x1 = 0.06	1039.22	1.185
328.15 K, x1 = 0.0801	1047.33	1.395
328.15 K, x1 = 0.1	1055.72	1.657
328.15 K, x1 = 0.1201	1064	1.97
328.15 K, x1 = 0.15	1075.88	2.545
333.15 K, x1 = 0.0201	1014.76	0.79
333.15 K, x1 = 0.0401	1024.69	0.919
333.15 K, x1 = 0.06	1034.16	1.096
333.15 K, x1 = 0.0801	1043.04	1.279
333.15 K, x1 = 0.1	1051.63	1.515
333.15 K, x1 = 0.1201	1059.77	1.776
333.15 K, x1 = 0.15	1071.94	2.285

CC(=O)OC(C)=O [ethanoic anhydride] + CC(=O)O
Conditions	mass density [kg/m3]	viscosity [mPa·s]
293.15 K, x2 = 0	1080.89	0.888
293.15 K, x2 = 0.1	1079.28	0.905
293.15 K, x2 = 0.2	1077.19	0.92
293.15 K, x2 = 0.2999	1074.93	0.934
293.15 K, x2 = 0.3996	1072.42	0.954
293.15 K, x2 = 0.4999	1069.56	0.975
293.15 K, x2 = 0.5965	1066.68	1.004
293.15 K, x2 = 0.6992	1063.1	1.041
293.15 K, x2 = 0.8004	1059.19	1.084
293.15 K, x2 = 0.8976	1054.94	1.145
298.15 K, x2 = 0	1074.8	0.829
298.15 K, x2 = 0.1	1073.24	0.844
298.15 K, x2 = 0.2	1071.18	0.859
298.15 K, x2 = 0.2999	1068.96	0.872
298.15 K, x2 = 0.3996	1066.47	0.887
298.15 K, x2 = 0.4999	1063.66	0.908
298.15 K, x2 = 0.5965	1060.8	0.933
298.15 K, x2 = 0.6992	1057.27	0.966
298.15 K, x2 = 0.8004	1053.41	1.008
298.15 K, x2 = 0.8976	1049.21	1.057
303.15 K, x2 = 0	1068.7	0.778
303.15 K, x2 = 0.1	1067.18	0.793
303.15 K, x2 = 0.2	1065.17	0.805
303.15 K, x2 = 0.2999	1062.98	0.819
303.15 K, x2 = 0.3996	1060.53	0.831
303.15 K, x2 = 0.4999	1057.75	0.849
303.15 K, x2 = 0.5965	1054.93	0.874
303.15 K, x2 = 0.6992	1051.45	0.903
303.15 K, x2 = 0.8004	1047.64	0.936
303.15 K, x2 = 0.8976	1043.48	0.985
308.15 K, x2 = 0	1062.61	0.729
308.15 K, x2 = 0.1	1061.12	0.742
308.15 K, x2 = 0.2	1059.15	0.754
308.15 K, x2 = 0.2999	1057	0.768
308.15 K, x2 = 0.3996	1054.57	0.777
308.15 K, x2 = 0.4999	1051.83	0.793
308.15 K, x2 = 0.5965	1049.05	0.814
308.15 K, x2 = 0.6992	1045.62	0.842
308.15 K, x2 = 0.8004	1041.85	0.873
308.15 K, x2 = 0.8976	1037.75	0.919
313.15 K, x2 = 0	1056.49	0.688
313.15 K, x2 = 0.1	1055.06	0.699
313.15 K, x2 = 0.2	1053.12	0.71
313.15 K, x2 = 0.2999	1051	0.721
313.15 K, x2 = 0.3996	1048.6	0.734
313.15 K, x2 = 0.4999	1045.9	0.748
313.15 K, x2 = 0.5965	1043.16	0.766
313.15 K, x2 = 0.6992	1039.78	0.791
313.15 K, x2 = 0.8004	1036.06	0.82
313.15 K, x2 = 0.8976	1032.01	0.86
318.15 K, x2 = 0	1050.38	0.648
318.15 K, x2 = 0.1	1048.96	0.659
318.15 K, x2 = 0.2	1047.07	0.666
318.15 K, x2 = 0.2999	1044.99	0.678
318.15 K, x2 = 0.3996	1042.62	0.688
318.15 K, x2 = 0.4999	1039.96	0.703
318.15 K, x2 = 0.5965	1037.26	0.721
318.15 K, x2 = 0.6992	1033.93	0.743
318.15 K, x2 = 0.8004	1030.27	0.77
318.15 K, x2 = 0.8976	1026.28	0.8
323.15 K, x2 = 0	1044.24	0.61
323.15 K, x2 = 0.1	1042.87	0.621
323.15 K, x2 = 0.2	1041.01	0.627
323.15 K, x2 = 0.2999	1038.96	0.638
323.15 K, x2 = 0.3996	1036.63	0.649
323.15 K, x2 = 0.4999	1034.01	0.661
323.15 K, x2 = 0.5965	1031.34	0.676
323.15 K, x2 = 0.6992	1028.06	0.699
323.15 K, x2 = 0.8004	1024.46	0.723
323.15 K, x2 = 0.8976	1020.54	0.751
328.15 K, x2 = 0	1038.07	0.58
328.15 K, x2 = 0.1	1036.74	0.587
328.15 K, x2 = 0.2	1034.94	0.595
328.15 K, x2 = 0.2999	1032.91	0.603
328.15 K, x2 = 0.3996	1030.61	0.614
328.15 K, x2 = 0.4999	1028.04	0.625
328.15 K, x2 = 0.5965	1025.39	0.639
328.15 K, x2 = 0.6992	1022.18	0.66
328.15 K, x2 = 0.8004	1018.64	0.68
328.15 K, x2 = 0.8976	1014.79	0.708
333.15 K, x2 = 0	1031.9	0.548
333.15 K, x2 = 0.1	1030.63	0.556
333.15 K, x2 = 0.2	1028.83	0.562
333.15 K, x2 = 0.2999	1026.84	0.57
333.15 K, x2 = 0.3996	1024.57	0.58
333.15 K, x2 = 0.4999	1022.05	0.59
333.15 K, x2 = 0.5965	1019.44	0.605
333.15 K, x2 = 0.6992	1016.3	0.622
333.15 K, x2 = 0.8004	1012.82	0.64
333.15 K, x2 = 0.8976	1009.03	0.665
338.15 K, x2 = 0	1025.7	0.521
338.15 K, x2 = 0.1	1024.48	0.53
338.15 K, x2 = 0.2	1022.71	0.533
338.15 K, x2 = 0.2999	1020.75	0.542
338.15 K, x2 = 0.3996	1018.52	0.551
338.15 K, x2 = 0.4999	1016.04	0.558
338.15 K, x2 = 0.5965	1013.48	0.575
338.15 K, x2 = 0.6992	1010.39	0.59
338.15 K, x2 = 0.8004	1006.97	0.605
338.15 K, x2 = 0.8976	1003.24	0.629
